The test system of this assay is isolated perfused rat hearts. In words: Isolated perfused rat heart (modified Langendorff) global ischemia/reperfusion injury. The following applies: 5 μM for 5 min prior to 30 min global ischemia and for first 5 min of 45 min reperfusion; compared to untreated control I/R hearts; n=7.

Take `Oc1ccc2c3c1O[C@H]1c4[nH]c5ccccc5c4C[C@@]4(O)[C@@H](C2)N(CC2CC2)CC[C@]314` [naltrindole]: the “infarct size (TTC staining at end of reperfusion)” value is recorded as “reduced infarct size” and the “post-reperfused cardiac function (+dP/dtmax, -dP/dtmin, LVDP, LVEDP)” value is “significantly restored”.
